In ChEMBL document CHEMBL4507317, “Data for DCP probe BAY-899” (2021):

Assays:
[1] = molecular target: Dual specificity protein kinase TTK (Homo sapiens) (UniProt P33981); conditions: Compound concentration 1000.0 nM
[2] = molecular target: Histamine H4 receptor (Homo sapiens) (UniProt Q9H3N8); conditions: Compound concentration 10.0 uM
[3] = tested on: Epidermal growth factor receptor (Homo sapiens), P00533 [UNDEFINED MUTATION]; conditions: Compound concentration 1000.0 nM
[4] = tested on: Epidermal growth factor receptor (Homo sapiens), P00533 [UNDEFINED MUTATION]; conditions: Compound concentration 1000.0 nM; remark: listed apart in the source
[5] = tested on: Tyrosine-protein kinase ABL1 (Homo sapiens), P00519 [T315I]; conditions: Compound concentration 1000.0 nM
[6] = molecular target: Cyclin-dependent kinase 3 (Homo sapiens) (UniProt Q00526); conditions: Compound concentration 1000.0 nM
[7] = molecular target: D(4) dopamine receptor (Homo sapiens) (UniProt P21917); conditions: Compound concentration 10.0 uM
[8] = molecular target: Serine/threonine-protein kinase 10 (Homo sapiens) (UniProt O94804); conditions: Compound concentration 1000.0 nM
[9] = molecular target: Activin receptor type-1 (Homo sapiens) (UniProt Q04771); conditions: Compound concentration 1000.0 nM
[10] = molecular target: Glycogen synthase kinase-3 alpha (Homo sapiens) (UniProt P49840); conditions: Compound concentration 1000.0 nM
[11] = molecular target: Calcium/calmodulin-dependent protein kinase type II subunit delta (Homo sapiens) (UniProt Q13557); conditions: Compound concentration 1000.0 nM
[12] = molecular target: Serine/threonine-protein kinase Nek7 (Homo sapiens) (UniProt Q8TDX7); conditions: Compound concentration 1000.0 nM
[13] = molecular target: Muscarinic acetylcholine receptor M2 (Homo sapiens) (UniProt P08172); conditions: Compound concentration 10.0 uM
[14] = molecular target: Serine/threonine-protein kinase pim-1 (Homo sapiens) (UniProt P11309); conditions: Compound concentration 1000.0 nM
[15] = molecular target: ALK tyrosine kinase receptor (Homo sapiens) (UniProt Q9UM73); conditions: Compound concentration 1000.0 nM
[16] = tested on: Tyrosine-protein kinase ABL1 (Homo sapiens), P00519 [Y253F]; conditions: Compound concentration 1000.0 nM
[17] = molecular target: cGMP-dependent protein kinase 1 (Homo sapiens) (UniProt Q13976); conditions: Compound concentration 1000.0 nM
[18] = molecular target: Phosphatidylinositol 4,5-bisphosphate 3-kinase catalytic subunit beta isoform (Homo sapiens) (UniProt P42338); conditions: Compound concentration 1000.0 nM
[19] = molecular target: Mitogen-activated protein kinase 8 (Homo sapiens) (UniProt P45983); conditions: Compound concentration 1000.0 nM
[20] = molecular target: Ribosomal protein S6 kinase alpha-3 (Homo sapiens) (UniProt P51812); conditions: Compound concentration 1000.0 nM
[21] = molecular target: Megakaryocyte-associated tyrosine-protein kinase (Homo sapiens) (UniProt P42679); conditions: Compound concentration 1000.0 nM
[22] = molecular target: Serine/threonine-protein kinase 32A (Homo sapiens) (UniProt Q8WU08); conditions: Compound concentration 1000.0 nM
[23] = molecular target: Cyclin-dependent kinase-like 2 (Homo sapiens) (UniProt Q92772); conditions: Compound concentration 1000.0 nM
[24] = molecular target: Serine/threonine-protein kinase BRSK1 (Homo sapiens) (UniProt Q8TDC3); conditions: Compound concentration 1000.0 nM
[25] = molecular target: Interleukin-1 receptor-associated kinase 1 (Homo sapiens) (UniProt P51617); conditions: Compound concentration 1000.0 nM
[26] = molecular target: Interferon-induced, double-stranded RNA-activated protein kinase (Homo sapiens) (UniProt P19525); conditions: Compound concentration 1000.0 nM
[27] = molecular target: Tyrosine-protein kinase ABL2 (Homo sapiens) (UniProt P42684); conditions: Compound concentration 1000.0 nM
[28] = tested on: Tyrosine-protein kinase ABL1 (Homo sapiens), P00519 [F317I]; conditions: Compound concentration 1000.0 nM
[29] = molecular target: Serine/threonine-protein kinase B-raf (Homo sapiens) (UniProt P15056); conditions: Compound concentration 1000.0 nM
[30] = molecular target: Ribosomal protein S6 kinase alpha-6 (Homo sapiens) (UniProt Q9UK32); conditions: Compound concentration 1000.0 nM
[31] = molecular target: Mitogen-activated protein kinase kinase kinase kinase 4 (Homo sapiens) (UniProt O95819); conditions: Compound concentration 1000.0 nM
[32] = molecular target: Serine/threonine-protein kinase 32B (Homo sapiens) (UniProt Q9NY57); conditions: Compound concentration 1000.0 nM
[33] = molecular target: Serine/threonine-protein kinase NIM1 (Homo sapiens) (UniProt Q8IY84); conditions: Compound concentration 1000.0 nM
[34] = molecular target: RAC-alpha serine/threonine-protein kinase (Homo sapiens) (UniProt P31749); conditions: Compound concentration 1000.0 nM
[35] = molecular target: Serine/threonine-protein kinase ULK3 (Homo sapiens) (UniProt Q6PHR2); conditions: Compound concentration 1000.0 nM
[36] = tested on: Phosphatidylinositol 4,5-bisphosphate 3-kinase catalytic subunit alpha isoform (Homo sapiens), P42336 [E545K]; conditions: Compound concentration 1000.0 nM
[37] = tested on: Epidermal growth factor receptor (Homo sapiens), P00533 [G719C]; conditions: Compound concentration 1000.0 nM
[38] = molecular target: Mitogen-activated protein kinase 12 (Homo sapiens) (UniProt P53778); conditions: Compound concentration 1000.0 nM
[39] = molecular target: Mitogen-activated protein kinase kinase kinase 15 (Homo sapiens) (UniProt Q6ZN16); conditions: Compound concentration 1000.0 nM
[40] = molecular target: Protein kinase C epsilon type (Homo sapiens) (UniProt Q02156); conditions: Compound concentration 1000.0 nM
[41] = tested on: Serine/threonine-protein kinase B-raf (Homo sapiens), P15056 [V600E]; conditions: Compound concentration 1000.0 nM
[42] = molecular target: LIM domain kinase 2 (Homo sapiens) (UniProt P53671); conditions: Compound concentration 1000.0 nM
[43] = molecular target: Receptor-type tyrosine-protein kinase FLT3 (Homo sapiens) (UniProt P36888); conditions: Compound concentration 1000.0 nM
Rattus norvegicus = species: Rattus norvegicus; conditions: Compound concentration 10.0 uM
[44] = molecular target: Casein kinase I isoform gamma-3 (Homo sapiens) (UniProt Q9Y6M4); conditions: Compound concentration 1000.0 nM

Chain of ALK tyrosine kinase receptor (Homo sapiens) (Q9UM73 19-1620 limits assumed): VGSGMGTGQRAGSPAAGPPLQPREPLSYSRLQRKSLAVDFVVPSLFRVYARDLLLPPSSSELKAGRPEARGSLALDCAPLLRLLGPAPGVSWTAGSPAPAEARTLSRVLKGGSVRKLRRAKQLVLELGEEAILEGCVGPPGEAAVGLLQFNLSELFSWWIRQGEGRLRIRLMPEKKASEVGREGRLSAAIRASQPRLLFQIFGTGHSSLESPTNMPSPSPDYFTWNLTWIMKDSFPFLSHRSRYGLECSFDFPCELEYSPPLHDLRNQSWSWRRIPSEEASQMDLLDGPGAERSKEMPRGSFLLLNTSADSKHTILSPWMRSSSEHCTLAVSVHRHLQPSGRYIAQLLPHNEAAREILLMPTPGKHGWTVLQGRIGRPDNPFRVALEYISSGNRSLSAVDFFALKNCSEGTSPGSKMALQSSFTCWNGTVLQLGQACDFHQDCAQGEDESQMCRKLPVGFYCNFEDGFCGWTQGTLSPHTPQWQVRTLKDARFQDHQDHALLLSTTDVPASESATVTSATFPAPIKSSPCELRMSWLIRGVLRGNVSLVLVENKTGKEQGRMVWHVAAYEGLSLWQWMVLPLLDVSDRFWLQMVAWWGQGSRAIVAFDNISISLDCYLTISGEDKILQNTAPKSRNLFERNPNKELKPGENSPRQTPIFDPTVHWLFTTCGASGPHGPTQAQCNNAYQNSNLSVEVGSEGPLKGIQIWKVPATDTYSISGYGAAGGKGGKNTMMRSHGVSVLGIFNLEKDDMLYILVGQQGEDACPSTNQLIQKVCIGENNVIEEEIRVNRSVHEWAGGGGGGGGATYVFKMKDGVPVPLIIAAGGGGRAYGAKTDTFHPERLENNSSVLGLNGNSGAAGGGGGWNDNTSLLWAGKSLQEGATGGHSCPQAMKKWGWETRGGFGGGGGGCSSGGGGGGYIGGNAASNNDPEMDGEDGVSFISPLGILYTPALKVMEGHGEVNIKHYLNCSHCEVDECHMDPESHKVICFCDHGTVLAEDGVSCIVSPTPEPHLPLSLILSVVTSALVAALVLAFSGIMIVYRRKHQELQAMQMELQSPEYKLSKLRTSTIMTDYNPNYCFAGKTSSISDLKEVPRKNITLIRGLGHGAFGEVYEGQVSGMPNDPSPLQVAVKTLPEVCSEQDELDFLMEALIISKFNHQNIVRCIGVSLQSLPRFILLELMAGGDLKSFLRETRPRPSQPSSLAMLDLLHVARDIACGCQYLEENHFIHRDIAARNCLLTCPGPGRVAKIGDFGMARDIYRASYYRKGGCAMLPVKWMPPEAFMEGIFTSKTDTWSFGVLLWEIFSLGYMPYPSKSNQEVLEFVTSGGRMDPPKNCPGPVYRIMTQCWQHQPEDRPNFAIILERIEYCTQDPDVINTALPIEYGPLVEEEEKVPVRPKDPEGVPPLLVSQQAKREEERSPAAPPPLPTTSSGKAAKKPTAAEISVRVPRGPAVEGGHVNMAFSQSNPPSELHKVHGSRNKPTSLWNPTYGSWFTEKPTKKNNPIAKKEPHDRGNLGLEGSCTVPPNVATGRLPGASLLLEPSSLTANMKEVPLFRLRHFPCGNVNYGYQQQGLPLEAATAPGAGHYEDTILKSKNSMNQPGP
Chain of Serine/threonine-protein kinase B-raf (Homo sapiens), P15056 [V600E] (P15056 whole entry V600E, the tested form may be a part): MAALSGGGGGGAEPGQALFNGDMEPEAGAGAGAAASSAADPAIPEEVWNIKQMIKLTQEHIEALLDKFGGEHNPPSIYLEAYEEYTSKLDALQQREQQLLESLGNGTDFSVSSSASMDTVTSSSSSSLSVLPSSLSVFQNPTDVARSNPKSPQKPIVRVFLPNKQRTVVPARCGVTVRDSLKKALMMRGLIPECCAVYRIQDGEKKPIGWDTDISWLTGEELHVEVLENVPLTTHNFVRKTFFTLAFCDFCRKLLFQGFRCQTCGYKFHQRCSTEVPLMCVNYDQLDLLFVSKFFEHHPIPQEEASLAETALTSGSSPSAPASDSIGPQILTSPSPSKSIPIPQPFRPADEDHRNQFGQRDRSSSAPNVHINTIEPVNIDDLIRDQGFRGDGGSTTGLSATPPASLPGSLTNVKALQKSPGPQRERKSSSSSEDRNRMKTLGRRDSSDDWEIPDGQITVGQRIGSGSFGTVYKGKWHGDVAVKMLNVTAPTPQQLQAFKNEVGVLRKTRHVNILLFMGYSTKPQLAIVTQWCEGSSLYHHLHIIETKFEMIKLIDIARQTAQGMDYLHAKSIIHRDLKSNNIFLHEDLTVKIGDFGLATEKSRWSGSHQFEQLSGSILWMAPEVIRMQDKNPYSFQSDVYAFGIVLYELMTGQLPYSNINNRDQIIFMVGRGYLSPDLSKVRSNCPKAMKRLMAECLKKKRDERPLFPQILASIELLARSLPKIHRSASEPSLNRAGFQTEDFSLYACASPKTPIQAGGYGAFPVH
Chain of Serine/threonine-protein kinase BRSK1 (Homo sapiens) (Q8TDC3 whole entry): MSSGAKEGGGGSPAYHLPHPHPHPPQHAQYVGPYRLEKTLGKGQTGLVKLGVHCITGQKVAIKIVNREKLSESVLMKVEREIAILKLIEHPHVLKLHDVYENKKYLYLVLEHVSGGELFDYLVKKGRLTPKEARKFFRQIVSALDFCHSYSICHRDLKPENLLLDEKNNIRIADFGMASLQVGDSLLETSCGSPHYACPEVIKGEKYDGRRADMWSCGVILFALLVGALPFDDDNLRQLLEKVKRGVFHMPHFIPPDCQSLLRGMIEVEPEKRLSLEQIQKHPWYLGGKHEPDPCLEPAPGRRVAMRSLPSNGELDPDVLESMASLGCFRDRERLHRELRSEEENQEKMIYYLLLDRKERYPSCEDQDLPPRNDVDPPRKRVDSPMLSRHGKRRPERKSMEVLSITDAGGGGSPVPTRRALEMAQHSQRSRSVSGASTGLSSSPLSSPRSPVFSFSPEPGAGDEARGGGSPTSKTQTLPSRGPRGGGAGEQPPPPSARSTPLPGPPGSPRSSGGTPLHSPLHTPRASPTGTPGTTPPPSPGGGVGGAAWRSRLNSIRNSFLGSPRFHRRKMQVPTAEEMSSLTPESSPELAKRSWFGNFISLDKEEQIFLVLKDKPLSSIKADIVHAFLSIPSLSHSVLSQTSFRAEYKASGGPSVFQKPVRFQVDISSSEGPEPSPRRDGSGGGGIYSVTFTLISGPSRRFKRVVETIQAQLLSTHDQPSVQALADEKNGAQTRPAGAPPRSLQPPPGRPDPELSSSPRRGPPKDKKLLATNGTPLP
Chain of Phosphatidylinositol 4,5-bisphosphate 3-kinase catalytic subunit alpha isoform (Homo sapiens), P42336 [E545K] (P42336 whole entry E545K, canonical isoform): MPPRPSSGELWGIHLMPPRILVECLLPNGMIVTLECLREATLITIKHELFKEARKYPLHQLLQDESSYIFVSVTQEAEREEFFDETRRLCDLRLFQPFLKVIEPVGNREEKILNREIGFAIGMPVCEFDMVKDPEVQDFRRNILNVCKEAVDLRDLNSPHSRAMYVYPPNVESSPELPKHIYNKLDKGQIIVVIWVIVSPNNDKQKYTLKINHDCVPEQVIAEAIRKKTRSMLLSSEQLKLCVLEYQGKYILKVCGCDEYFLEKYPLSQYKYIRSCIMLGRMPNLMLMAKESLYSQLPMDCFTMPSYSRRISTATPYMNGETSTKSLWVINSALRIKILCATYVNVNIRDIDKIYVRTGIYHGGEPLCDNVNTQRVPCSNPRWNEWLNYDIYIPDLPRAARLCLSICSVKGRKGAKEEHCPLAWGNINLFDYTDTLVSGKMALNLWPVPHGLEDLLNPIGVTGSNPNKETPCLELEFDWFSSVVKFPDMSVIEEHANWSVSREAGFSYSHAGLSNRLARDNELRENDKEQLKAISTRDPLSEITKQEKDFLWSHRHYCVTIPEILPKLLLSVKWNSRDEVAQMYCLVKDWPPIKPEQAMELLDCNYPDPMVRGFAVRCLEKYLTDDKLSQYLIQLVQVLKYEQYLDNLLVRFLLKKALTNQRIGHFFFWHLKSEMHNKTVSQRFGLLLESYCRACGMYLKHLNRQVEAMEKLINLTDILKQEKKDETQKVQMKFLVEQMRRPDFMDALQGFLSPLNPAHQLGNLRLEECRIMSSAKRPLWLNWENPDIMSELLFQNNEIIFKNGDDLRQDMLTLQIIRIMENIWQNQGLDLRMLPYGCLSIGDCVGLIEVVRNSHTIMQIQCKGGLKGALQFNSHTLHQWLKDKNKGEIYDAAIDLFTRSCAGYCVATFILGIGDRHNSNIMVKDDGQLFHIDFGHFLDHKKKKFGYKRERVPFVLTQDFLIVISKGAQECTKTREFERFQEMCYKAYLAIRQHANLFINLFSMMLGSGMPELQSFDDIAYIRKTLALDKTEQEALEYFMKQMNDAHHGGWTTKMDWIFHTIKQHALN
Chain of Muscarinic acetylcholine receptor M2 (Homo sapiens) (P08172 whole entry): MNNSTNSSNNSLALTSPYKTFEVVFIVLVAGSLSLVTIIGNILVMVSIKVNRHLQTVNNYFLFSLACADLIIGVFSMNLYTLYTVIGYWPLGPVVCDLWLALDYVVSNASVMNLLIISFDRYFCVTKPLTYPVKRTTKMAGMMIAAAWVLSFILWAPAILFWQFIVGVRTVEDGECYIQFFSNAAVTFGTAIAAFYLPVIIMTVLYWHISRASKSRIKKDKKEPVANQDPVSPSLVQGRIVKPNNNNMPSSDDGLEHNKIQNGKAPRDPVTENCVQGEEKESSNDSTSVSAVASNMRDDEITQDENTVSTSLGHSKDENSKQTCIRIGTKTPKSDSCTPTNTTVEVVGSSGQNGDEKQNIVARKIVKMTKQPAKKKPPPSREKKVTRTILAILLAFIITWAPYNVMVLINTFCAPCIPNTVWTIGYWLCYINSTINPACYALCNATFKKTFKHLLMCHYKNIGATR
Chain of Serine/threonine-protein kinase B-raf (Homo sapiens) (P15056 whole entry): as the sequence (P15056 whole entry V600E, the tested form may be a part) above, with E600V counted along it
Chain of Serine/threonine-protein kinase Nek7 (Homo sapiens) (Q8TDX7 whole entry, looked up): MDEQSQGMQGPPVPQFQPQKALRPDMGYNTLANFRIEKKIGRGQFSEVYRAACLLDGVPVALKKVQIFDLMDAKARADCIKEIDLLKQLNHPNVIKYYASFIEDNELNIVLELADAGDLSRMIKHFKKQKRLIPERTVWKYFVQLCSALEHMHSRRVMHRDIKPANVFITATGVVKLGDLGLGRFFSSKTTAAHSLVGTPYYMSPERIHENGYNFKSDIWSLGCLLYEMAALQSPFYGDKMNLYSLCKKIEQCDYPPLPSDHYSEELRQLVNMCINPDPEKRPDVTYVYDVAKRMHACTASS

O=C(Nc1ccc(Oc2ccc(F)cc2)cc1)N1CCc2ncccc2[C@H]1c1ccc(F)cc1 [BAY-897]
residual activity [1]: 94%
inhibition [2]: 7.56%
residual activity [3]: 74%
residual activity [4]: 100%
residual activity [5]: 85%
residual activity [6]: 93%
inhibition [7]: 0.29%
residual activity [8]: 100%
residual activity [9]: 96%
residual activity [10]: 95%
residual activity [11]: 89%
residual activity [12]: 82%
inhibition [13]: -1.78%
residual activity [14]: 99%
residual activity [15]: 100%
residual activity [16]: 82%
residual activity [17]: 91%
residual activity [18]: 77%
residual activity [19]: 91%
residual activity [20]: 97%
residual activity [21]: 90%
residual activity [22]: 100%
residual activity [23]: 77%
residual activity [24]: 100%
residual activity [25]: 88%
residual activity [26]: 100%
residual activity [27]: 88%
residual activity [28]: 94%
residual activity [29]: 85%
residual activity [30]: 95%
residual activity [31]: 100%
residual activity [32]: 72%
residual activity [33]: 80%
residual activity [34]: 95%
residual activity [35]: 99%
residual activity [36]: 73%
residual activity [37]: 73%
residual activity [38]: 94%
residual activity [39]: 100%
residual activity [40]: 100%
residual activity [41]: 93%
residual activity [42]: 93%
residual activity [43]: 100%
inhibition (Rattus norvegicus): 33.4%
residual activity [44]: 80%

O=C(Nc1cnc(Oc2ccc(F)cc2)nc1)N1CCc2ncccc2[C@@H]1c1ccc(F)cc1 [BAY-899]
residual activity [1]: 86%
inhibition [2]: -4.41%
residual activity [3]: 100%
residual activity [4]: 100%
residual activity [5]: 77%
residual activity [6]: 89%
inhibition [7]: 43.8%
residual activity [8]: 94%
residual activity [9]: 97%
residual activity [10]: 93%
residual activity [11]: 92%
residual activity [12]: 84%
inhibition [13]: -5.1%
residual activity [14]: 91%
residual activity [15]: 99%
residual activity [16]: 100%
residual activity [17]: 89%
residual activity [18]: 84%
residual activity [19]: 83%
residual activity [20]: 91%
residual activity [21]: 80%
residual activity [22]: 100%
residual activity [23]: 33%
residual activity [24]: 87%
residual activity [25]: 88%
residual activity [26]: 73%
residual activity [27]: 78%
residual activity [28]: 99%
residual activity [29]: 74%
residual activity [30]: 82%
residual activity [31]: 86%
residual activity [32]: 87%
residual activity [33]: 90%
residual activity [34]: 100%
residual activity [35]: 95%
residual activity [36]: 63%
residual activity [37]: 76%
residual activity [38]: 96%
residual activity [39]: 100%
residual activity [40]: 100%
residual activity [41]: 83%
residual activity [42]: 97%
residual activity [43]: 90%
inhibition (Rattus norvegicus): 44.6%
residual activity [44]: 87%
